In US7960439B1, “Environmentally sensitive foldable oligomers” (Iowa State University Research Foundation, Inc., priority 2006, dated 2011):

Experiments:
[1] = Fluorescence quenching of NBD-labeled cholate oligomers by hydrophilic quencher 11; assay type: binding
Description: Fluorescence Quenching of the NBD-Labeled Cholate Oligomers 1-4: Typical procedures for the quenching experiment are as follows. Stock solutions (1.0×10^−3 M) of 1-4 in anhydrous THF were prepared. An aliquot (25.0 μL) of the stock solution was diluted by 2.00 mL of carbon tetrachloride with 5 vol. % DMSO in a quartz cuvet. Aliquots (5.0 μL, 0.8 M) of the quencher (11 or 12) in THF were added with a Hamilton Gastight syringe. After each addition, the sample was vortexed for 1 minute before the fluorescence spectrum was recorded. The excitation wavelength was set at 336 nm and the maximum emission intensity at 527 nm was monitored.

[2] = Solvent denaturation of donor-acceptor labeled cholate oligomers followed by FRET (two-state model); assay type: physicochemical; conditions: for m (in parentheses) / ΔG0 (in parentheses): linear fitting of unfolding free energies (FIG. 12); for m / ΔG0: nonlinear least-squares fitting to two-state model (FIG. 11)
From the text: According to the two-state model, at any given concentration of the denaturant (i.e., DMSO), only the folded and unfolded conformations are present and their fractions are represented by fF and fU. Fraction of the unfolded conformation can be calculated by: fU=(IF−I)/(IF−IU) (2) in which I is the observed emission intensity of the acceptor in a given foldamer, IF is the emission intensity of the acceptor in the fully folded conformer, and IU is the emission intensity of the acceptor in the fully unfolded conformer. The equilibrium constant (Keq) and the free energy (ΔG) for the folding reaction can be calculated using ΔG=RT ln Keq=−RT ln(fU/fF)=−RT ln [fU/(1−fU)] (3)
In order to calculate fractions of the unfolded conformations, both IF and IU must be known for different foldamers. The emission intensity of the acceptor in the 1:1 mixture of the monomer A 8 (MA) and monomer D 9(MD) should be good approximations for IU since the emission intensity of the longer foldamers (e.g., pentamer-DA 5 (PDA)) does converge to that of the (MA+MD) mixture upon unfolding. The value of IF, on the other hand, cannot be obtained directly because none of the three foldamers seem to be fully folded under the initial condition of 1% DMSO.
In general, to obtain the values of IF for PDA, hexamer-DA 6 (HXDA), and heptamer-DA 7 (HPDA), it is useful to first make an assumption for fU (e.g., fU=0.1 for the HPDA) in 1% DMSO and use it to calculate the corresponding value of IF, which is designated IF(1). Using IF(1), the first set of fU(1) can be calculated at different DMSO percentages according to equation 2. In the two-state model, the free energies are linearly related to the concentration of denaturant (i.e., DMSO): ΔG=ΔG0−m[DMSO] (4) in which ΔG0 is the free energy for the folding reaction in the absence of denaturant and m measures how sensitive the folding equilibrium is toward DMSO percentage. From equations 2, 3, and 4, the following equation 5 can be obtained, where equation 5 describes the relationship between fU and DMSO percentage: fU=1/{1+1/exp[−(ΔG0−m[DMSO])/RT]} (5)
As a result, the initial values of ΔG0 and m (which are designated as ΔG0(1) and m1) can be obtained by nonlinear least-squares fitting to the first set of fU(1). The resulting ΔG0(1) and m1 are used to calculate the refined value of IF(2) using equations 5 and 2. This process is repeated as long as there is a fairly large difference between the entering IF(n) value and the resulting IF(n+1) value. In general, fitting of the data improves over several rounds of refinement. The refinement is stopped in the end when the values of IF(n) and IF(n+1) are within 1% of each other and are taken as the final value of IF.
In such data processing, it is assumed that IF was independent of DMSO percentage. Such an assumption is expected to underestimate the stability of the cholate foldamers. This is because the emission of MA is shown to be slightly quenched by DMSO—the emission intensity decreases by about 20% over 1-5% DMSO.
FRET Study of the Donor-Acceptor Labeled Cholate Oligomers 5-9 Stock solutions (2.0×10^−4M) of 5-9 in anhydrous THF were prepared. An aliquot (20.0 μL) of the stock solution was diluted by (a) 2.00 mL of ethyl acetate/hexane (v/v=1.05/2) with 1 vol. % DMSO and (b) […] 2.00 mL of ethyl acetate/hexane (v/v=1/1) with 1 vol. % DMSO in a quartz cuvet. Ten aliquots of DMSO (10.0 μL each) were added to the sample. After each addition, the sample was vortexed for 1 minute before the fluorescence spectrum was recorded. The excitation wavelength was set at 287 nm.

[3] = DMSO in ethyl acetate/hexane (1/1)
[4] = DMSO in ethyl acetate/hexane (1/2)

COC(=O)CCC(C)C1CCC2C3C(O)CC4CC(NC(=O)CCC(C)C5CCC6C7C(O)CC8CC(NC(=O)CCC(C)C9CCC%10C%11C(O)CC%12CC(NC(=O)CCC(C)C%13CCC%14C%15C(O)CC%16CC(NC(=O)CCC(C)C%17CCC%18C%19C(O)CC%20CC(NC(=O)CCC(C)C%21CCC%22C%23C(O)CC%24CC(NC(=O)CCC(C)C%25CCC%26C%27C(O)CC%28CC(Nc%29ccc([N+](=O)[O-])c%30nonc%29%30)CCC%28(C)C%27CC(O)C%25%26C)CCC%24(C)C%23CC(O)C%21%22C)CCC%20(C)C%19CC(O)C%17%18C)CCC%16(C)C%15CC(O)C%13%14C)CCC%12(C)C%11CC(O)C9%10C)CCC8(C)C7CC(O)C56C)CCC4(C)C3CC(O)C12C (stereo not shown) [Compound 4]
reduction of fluorescence by quencher 11 ([1]; 5.6 mM of 11 in 2% methanol/CCl4): 60 fold
reduction of fluorescence by quencher 11 ([1]; 5.6 mM of 11 in 5% DMSO/CCl4): < 3 fold

CC(CCC(=O)Nc1cccc2ccccc12)C1CCC2C3C(O)CC4CC(NC(=O)CCC(C)C5CCC6C7C(O)CC8CC(NC(=O)CCC(C)C9CCC%10C%11C(O)CC%12CC(NC(=O)CCC(C)C%13CCC%14C%15C(O)CC%16CC(NC(=O)CCC(C)C%17CCC%18C%19C(O)CC%20CC(NC(=O)CCC(C)C%21CCC%22C%23C(O)CC%24CC(NS(=O)(=O)c%25cccc%26c(N(C)C)cccc%25%26)CCC%24(C)C%23CC(O)C%21%22C)CCC%20(C)C%19CC(O)C%17%18C)CCC%16(C)C%15CC(O)C%13%14C)CCC%12(C)C%11CC(O)C9%10C)CCC8(C)C7CC(O)C56C)CCC4(C)C3CC(O)C12C (stereo not shown) [Compound 6]
m (in parentheses) [2, 3]: 0.89 kcal/mol
ΔG0 (in parentheses) [2, 3]: 1.9 kcal/mol
m [2, 3]: 0.81 ± 0.06 kcal/mol
ΔG0 [2, 3]: 1.8 ± 0.1 kcal/mol
m (in parentheses) [2, 4]: 0.52 kcal/mol
ΔG0 (in parentheses) [2, 4]: 1.8 kcal/mol
m [2, 4]: 0.50 ± 0.02 kcal/mol
ΔG0 [2, 4]: 1.7 ± 0.1 kcal/mol
